Converted amounts (≈) assume the structure as drawn. Read-outs that look alike come from different tables or passages of the source.
Assays:
[1] = tested on: Staphylococcus aureus CCM 4516/08; assay: Antibacterial microdilution broth MIC, S. aureus; assay type: cell-based; conditions: Staphylococcus aureus
[2] = tested on: Staphylococcus epidermidis H 6966/08; assay: Antibacterial microdilution broth MIC, S. epidermidis; assay type: cell-based; conditions: Staphylococcus epidermidis
[3] = tested on: Enterococcus faecalis J 14365/08; assay: Antibacterial microdilution broth MIC, E. faecalis; assay type: cell-based; conditions: Enterococcus faecalis
[4] = tested on: Escherichia coli CCM 4517; assay: Antibacterial microdilution broth MIC, E. coli; assay type: cell-based; conditions: Escherichia coli
[5] = tested on: Pseudomonas aeruginosa CCM 1961; assay: Antibacterial microdilution broth MIC, P. aeruginosa; assay type: cell-based; conditions: Pseudomonas aeruginosa
[6] = tested on: Mycobacterium tuberculosis 331/88 (H37Rv); assay: In vitro antimycobacterial MIC, M. tuberculosis; assay type: cell-based
[7] = tested on: Mycobacterium avium 330/88; assay: In vitro antimycobacterial MIC, M. avium; assay type: cell-based
[8] = tested on: Mycobacterium kansasii 235/80; assay: In vitro antimycobacterial MIC, M. kansasii 235/80; assay type: cell-based
M. kansasii 6509/96 = assay: In vitro antimycobacterial MIC, M. kansasii clinical isolate; assay type: cell-based; conditions: Mycobacterium kansasii
[9] = tested on: Candida albicans ATCC 44859; assay: Antifungal microdilution broth MIC, C. albicans; assay type: cell-based
Candida tropicalis 156 = assay: Antifungal microdilution broth MIC, C. tropicalis; assay type: cell-based
Candida krusei E28 = assay: Antifungal microdilution broth MIC, C. krusei; assay type: cell-based; conditions: Pichia kudriavzevii
Candida glabrata 20/I = assay: Antifungal microdilution broth MIC, C. glabrata; assay type: cell-based; conditions: Nakaseomyces glabratus
Trichosporon asahii 1188 = assay: Antifungal microdilution broth MIC, T. asahii; assay type: cell-based
[10] = tested on: Aspergillus fumigatus 231; assay: Antifungal microdilution broth MIC, A. fumigatus; assay type: cell-based
[11] = tested on: Lichtheimia corymbifera 272; assay: Antifungal microdilution broth MIC, L. corymbifera; assay type: cell-based
[12] = tested on: Trichophyton interdigitale 445; assay: Antifungal microdilution broth MIC, T. interdigitale; assay type: cell-based
Candida sp. = assay: Selectivity index for Candida sp. (IC50 HepG2/MIC); assay type: cell-based; conditions: all Candida species
M. tuberculosis and NTM = assay: Antimycobacterial activity, panel; assay type: cell-based; conditions: Mycobacterium tuberculosis
[13] = tested on: Klebsiella pneumoniae D 11750/08
[14] = tested on: ESBL-positive Klebsiella pneumoniae J 14368/08
[15] = tested on: Gram-positive and Gram-negative bacteria; conditions: both Gram-positive and Gram-negative bacteria; cited from earlier work
[16] = tested on: Klebsiella pneumoniae D 11750/08; assay: Antibacterial microdilution broth MIC, K. pneumoniae; conditions: 48 h incubation
[17] = CCM4516, 48 h incubation, read-out: MIC SA 48 h
[18] = H6966/08, 48 h incubation, read-out: MIC SE 48 h
[19] = CCM1961, 48 h incubation, read-out: MIC PA 48 h
[20] = 336 h, 14 d incubation, read-out: MIC Mtb. 331/88 14 d
[21] = 504 h, 21 d incubation, read-out: MIC Mtb. 331/88 21 d
[22] = 330/88, 336 h, 14 d incubation, read-out: MIC M. avium 330/88 14 d
[23] = 330/88, 504 h, 21 d incubation, read-out: MIC M. avium 330/88 21 d
[24] = 235/80, 168 h, 7 d incubation, read-out: MIC M. kansasii 235/80 7 d
[25] = 235/80, 336 h, 14 d incubation, read-out: MIC M. kansasii 235/80 14 d
[26] = 235/80, 504 h, 21 d incubation, read-out: MIC M. kansasii 235/80 21 d
[27] = 6509/96, 168 h, 7 d incubation, read-out: MIC M. kansasii 6509/96 7 d
[28] = 6509/96, 336 h, 14 d incubation, read-out: MIC M. kansasii 6509/96 14 d
[29] = 6509/96, 504 h, 21 d incubation, read-out: MIC M. kansasii 6509/96 21 d
[30] = ATCC44859, 48 h incubation, read-out: MIC CA 48 h
[31] = Candida tropicalis, 156, 48 h incubation, read-out: MIC CT 48 h
[32] = E28, 48 h incubation, read-out: MIC CK 48 h
[33] = 48 h incubation, read-out: MIC CG 48 h
[34] = Trichosporon asahii, 1188, 48 h incubation, read-out: MIC TA 48 h
[35] = Trichophyton interdigitale, 445, 72 h, read-out: MIC TI 72 h
[36] = Trichophyton interdigitale, 445, 120 h, read-out: MIC TI 120 h
[37] = Trichophyton interdigitale, 445, read-out: MIC for T. interdigitale
[38] = J14365/08, 24 h, read-out: MIC EF 24 h
[39] = J14365/08, 48 h, read-out: MIC EF 48 h
[40] = CCM4517, 24 h, read-out: MIC EC 24 h
[41] = CCM4517, 48 h, read-out: MIC EC 48 h
[42] = Aspergillus fumigatus, 231, 24 h, read-out: MIC AF 24 h
[43] = Aspergillus fumigatus, 231, 48 h, read-out: MIC AF 48 h
[44] = Lichtheimia corymbifera, 272, 24 h, read-out: MIC LC 24 h
[45] = Lichtheimia corymbifera, 272, 48 h, read-out: MIC LC 48 h

O=S(=O)(Nc1ncccn1)c1ccc(N=Cc2ccccc2O)cc1 [Compound 2a, 4-[(2-Hydroxybenzylidene)amino]-N-(pyrimidin-2-yl)benzenesulfonamide]
MIC [1, 17]: 500 µM (≈ 177 µg/mL)
MIC [2, 18]: 62.5 µM (≈ 22.1 µg/mL)
MIC ([3]; J14365/08, 48 h incubation, read-out: MIC EF 48 h): 62.5 µM (≈ 22.1 µg/mL)
MIC ([4]; CCM4517, 48 h incubation, read-out: MIC EC 48 h): > 500 µM
MIC [5, 19]: 500 µM (≈ 177 µg/mL)
MIC [6, 20]: 16 µM (≈ 5.67 µg/mL)
MIC [6, 21]: 32 µM (≈ 11.3 µg/mL)
MIC [7, 22]: 125 µM (≈ 44.3 µg/mL)
MIC [7, 23]: 250 µM (≈ 88.6 µg/mL)
MIC [8, 24]: 8 µM (≈ 2.84 µg/mL)
MIC [8, 25]: 16 µM (≈ 5.67 µg/mL)
MIC [8, 26]: 32 µM (≈ 11.3 µg/mL)
MIC (M. kansasii 6509/96; [27]): 8 µM (≈ 2.84 µg/mL)
MIC (M. kansasii 6509/96; [28]): 16 µM (≈ 5.67 µg/mL)
MIC (M. kansasii 6509/96; [29]): 32 µM (≈ 11.3 µg/mL)
MIC [9, 30]: > 500 µM
MIC (Candida tropicalis 156; [31]): > 500 µM
MIC (Candida krusei E28; [32]): > 500 µM
MIC (Candida glabrata 20/I; [33]): > 500 µM
MIC (Trichosporon asahii 1188; [34]): > 500 µM
MIC ([10]; Aspergillus fumigatus, 231, 48 h incubation, read-out: MIC AF 48 h): > 500 µM
MIC ([11]; Lichtheimia corymbifera, 272, 48 h incubation, read-out: MIC LC 48 h): > 500 µM
MIC [12, 35]: 125 µM (≈ 44.3 µg/mL)
MIC [12, 36]: 125 µM (≈ 44.3 µg/mL)
MIC [12, 37]: 125 µM (≈ 44.3 µg/mL)
SI for Candida sp. (Candida sp.): inactive
MIC (M. tuberculosis and NTM; M. tuberculosis and both M. kansasii strains only, read-out: MIC, M. tuberculosis and both M. kansasii strains): ≤ 32 µM
MIC (M. tuberculosis and NTM; range over all four mycobacterial strains and incubation times, read-out: MIC, M. tuberculosis and NTM): 8 to 250 µM (≈ 2.84 to 88.6 µg/mL)
MIC KP 24 h ([13]; 24 h): >500 µM
MIC KP 48 h ([13]; 48 h): >500 µM
MIC KP-E 24 h ([14]; 24 h): >500 µM
MIC KP-E 48 h ([14]; 48 h): >500 µM
minimum inhibitory concentrations (MICs) [15]: 100 to 250 µg/mL

CC(C)(C)c1ccc(O)c(C=Nc2ccc(S(=O)(=O)Nc3ncccn3)cc2)c1 [Compound 2j, 4-{[5-(Tert-butyl)-2-hydroxybenzylidene]amino}-N-(pyrimidin-2-yl)benzenesulfonamide]
MIC ([1]; CCM4516, 24 h, read-out: MIC SA 24 h): > 125 µM
MIC ([1]; CCM4516, 48 h, read-out: MIC SA 48 h): > 125 µM
MIC ([2]; H6966/08, 24 h, read-out: MIC SE 24 h): > 125 µM
MIC ([2]; H6966/08, 48 h, read-out: MIC SE 48 h): > 125 µM
MIC [3, 38]: > 125 µM
MIC [3, 39]: > 125 µM
MIC [4, 40]: > 125 µM
MIC [4, 41]: > 125 µM
MIC ([5]; CCM1961, 24 h, read-out: MIC PA 24 h): > 125 µM
MIC ([5]; CCM1961, 48 h, read-out: MIC PA 48 h): > 125 µM
MIC [6, 20]: 32 µM (≈ 13.1 µg/mL)
MIC [6, 21]: 62.5 µM (≈ 25.7 µg/mL)
MIC [7, 22]: 125 µM (≈ 51.3 µg/mL)
MIC [7, 23]: 125 µM (≈ 51.3 µg/mL)
MIC [8, 24]: 16 µM (≈ 6.57 µg/mL)
MIC [8, 25]: 32 µM (≈ 13.1 µg/mL)
MIC [8, 26]: 62.5 µM (≈ 25.7 µg/mL)
MIC (M. kansasii 6509/96; [27]): 16 µM (≈ 6.57 µg/mL)
MIC (M. kansasii 6509/96; [28]): 16 µM (≈ 6.57 µg/mL)
MIC (M. kansasii 6509/96; [29]): 32 µM (≈ 13.1 µg/mL)
MIC ([9]; ATCC44859, 24 h, read-out: MIC CA 24 h): > 125 µM
MIC ([9]; ATCC44859, 48 h, read-out: MIC CA 48 h): > 125 µM
MIC (Candida tropicalis 156; Candida tropicalis, 156, 24 h, read-out: MIC CT 24 h): > 125 µM
MIC (Candida tropicalis 156; Candida tropicalis, 156, 48 h, read-out: MIC CT 48 h): > 125 µM
MIC (Candida krusei E28; E28, 24 h, read-out: MIC CK 24 h): > 125 µM
MIC (Candida krusei E28; E28, 48 h, read-out: MIC CK 48 h): > 125 µM
MIC (Candida glabrata 20/I; 24 h, read-out: MIC CG 24 h): > 125 µM
MIC (Candida glabrata 20/I; 48 h, read-out: MIC CG 48 h): > 125 µM
MIC (Trichosporon asahii 1188; Trichosporon asahii, 1188, 24 h, read-out: MIC TA 24 h): > 125 µM
MIC (Trichosporon asahii 1188; Trichosporon asahii, 1188, 48 h, read-out: MIC TA 48 h): > 125 µM
MIC [10, 42]: > 125 µM
MIC [10, 43]: > 125 µM
MIC [11, 44]: > 125 µM
MIC [11, 45]: > 125 µM
MIC [12, 35]: 62.5 µM (≈ 25.7 µg/mL)
MIC [12, 36]: 62.5 µM (≈ 25.7 µg/mL)
MIC [12, 37]: 62.5 µM (≈ 25.7 µg/mL)
SI for Candida sp. (Candida sp.): inactive
MIC KP-E 48 h ([14]; 48 h incubation): >125 µM
MIC KP 48 h [16]: >125 µM

O=S(=O)(Nc1ncccn1)c1ccc(N=Cc2cc(I)cc(I)c2O)cc1 [Compound 2p, 4-[(2-Hydroxy-3,5-diiodobenzylidene)amino]-N-(pyrimidin-2-yl)benzenesulfonamide]
MIC [1, 17]: 7.81 µM (≈ 4.73 µg/mL)
MIC [2, 18]: 7.81 µM (≈ 4.73 µg/mL)
MIC ([2]; H6966/08, incubation time not given, read-out: MIC for S. epidermidis): 7.81 µM (≈ 4.73 µg/mL)
MIC [3, 38]: 125 µM (≈ 75.8 µg/mL)
MIC [3, 39]: 125 µM (≈ 75.8 µg/mL)
MIC [4, 40]: 125 µM (≈ 75.8 µg/mL)
MIC [4, 41]: 125 µM (≈ 75.8 µg/mL)
MIC [5, 19]: 500 µM (≈ 303 µg/mL)
MIC [6, 20]: 250 µM (≈ 152 µg/mL)
MIC [6, 21]: 250 µM (≈ 152 µg/mL)
MIC [7, 22]: 250 µM (≈ 152 µg/mL)
MIC [7, 23]: 500 µM (≈ 303 µg/mL)
MIC [8, 24]: 125 µM (≈ 75.8 µg/mL)
MIC [8, 25]: 250 µM (≈ 152 µg/mL)
MIC [8, 26]: 250 µM (≈ 152 µg/mL)
MIC (M. kansasii 6509/96; [27]): 62.5 µM (≈ 37.9 µg/mL)
MIC (M. kansasii 6509/96; [28]): 125 µM (≈ 75.8 µg/mL)
MIC (M. kansasii 6509/96; [29]): 250 µM (≈ 152 µg/mL)
MIC [9, 30]: 3.9 µM (≈ 2.36 µg/mL)
MIC (Candida tropicalis 156; [31]): 7.81 µM (≈ 4.73 µg/mL)
MIC (Candida krusei E28; [32]): 7.81 µM (≈ 4.73 µg/mL)
MIC (Candida glabrata 20/I; [33]): 3.9 µM (≈ 2.36 µg/mL)
MIC (Trichosporon asahii 1188; [34]): 3.9 µM (≈ 2.36 µg/mL)
MIC [10, 42]: 62.5 µM (≈ 37.9 µg/mL)
MIC [10, 43]: 62.5 µM (≈ 37.9 µg/mL)
MIC [11, 44]: 62.5 µM (≈ 37.9 µg/mL)
MIC [11, 45]: 62.5 µM (≈ 37.9 µg/mL)
MIC ([12]; Trichophyton interdigitale, 445, 72 h incubation, read-out: MIC TI 72 h): 15.6 µM (≈ 9.47 µg/mL)
MIC ([12]; Trichophyton interdigitale, 445, 120 h incubation, read-out: MIC TI 120 h): 15.6 µM (≈ 9.47 µg/mL)
MIC KP-E 48 h ([14]; 48 h incubation): 125 µM (≈ 75.8 µg/mL)
MIC KP 48 h [16]: 125 µM (≈ 75.8 µg/mL)
